# Measurements from patent publication US20240342292A1, “Compounds for the Degradation of EGFR Kinase” (BeiGene Switzerland GmbH, priority 2021, published 2024).
# Assays:
# L858R/T790M/C797S EGFR = molecular target: T1, L858R/T790M/C797S EGFR (Homo sapiens, UniProt P00533, C797S/L858R/T790M); assay: EGFR degradation HTRF assay in H1975-clone #25 (LTC) cells; assay type: cell-based; conditions: 16h treatment; for DC50: H1975 # 25-LTC (L858R/T790M/C797S), HTRF; for Dmax: NCI-H1975, H1975 # 25-LTC (L858R/T790M/C797S), maximum percentage of degradation
# T1 construct: expressed in transfected cells; host or cells: H1975 clone #25 (lentiviral over-expression, endogenous EGFR knocked out by sgRNA)
# T1 sequence (P00533 25-1210 T790M/C797S/L858R): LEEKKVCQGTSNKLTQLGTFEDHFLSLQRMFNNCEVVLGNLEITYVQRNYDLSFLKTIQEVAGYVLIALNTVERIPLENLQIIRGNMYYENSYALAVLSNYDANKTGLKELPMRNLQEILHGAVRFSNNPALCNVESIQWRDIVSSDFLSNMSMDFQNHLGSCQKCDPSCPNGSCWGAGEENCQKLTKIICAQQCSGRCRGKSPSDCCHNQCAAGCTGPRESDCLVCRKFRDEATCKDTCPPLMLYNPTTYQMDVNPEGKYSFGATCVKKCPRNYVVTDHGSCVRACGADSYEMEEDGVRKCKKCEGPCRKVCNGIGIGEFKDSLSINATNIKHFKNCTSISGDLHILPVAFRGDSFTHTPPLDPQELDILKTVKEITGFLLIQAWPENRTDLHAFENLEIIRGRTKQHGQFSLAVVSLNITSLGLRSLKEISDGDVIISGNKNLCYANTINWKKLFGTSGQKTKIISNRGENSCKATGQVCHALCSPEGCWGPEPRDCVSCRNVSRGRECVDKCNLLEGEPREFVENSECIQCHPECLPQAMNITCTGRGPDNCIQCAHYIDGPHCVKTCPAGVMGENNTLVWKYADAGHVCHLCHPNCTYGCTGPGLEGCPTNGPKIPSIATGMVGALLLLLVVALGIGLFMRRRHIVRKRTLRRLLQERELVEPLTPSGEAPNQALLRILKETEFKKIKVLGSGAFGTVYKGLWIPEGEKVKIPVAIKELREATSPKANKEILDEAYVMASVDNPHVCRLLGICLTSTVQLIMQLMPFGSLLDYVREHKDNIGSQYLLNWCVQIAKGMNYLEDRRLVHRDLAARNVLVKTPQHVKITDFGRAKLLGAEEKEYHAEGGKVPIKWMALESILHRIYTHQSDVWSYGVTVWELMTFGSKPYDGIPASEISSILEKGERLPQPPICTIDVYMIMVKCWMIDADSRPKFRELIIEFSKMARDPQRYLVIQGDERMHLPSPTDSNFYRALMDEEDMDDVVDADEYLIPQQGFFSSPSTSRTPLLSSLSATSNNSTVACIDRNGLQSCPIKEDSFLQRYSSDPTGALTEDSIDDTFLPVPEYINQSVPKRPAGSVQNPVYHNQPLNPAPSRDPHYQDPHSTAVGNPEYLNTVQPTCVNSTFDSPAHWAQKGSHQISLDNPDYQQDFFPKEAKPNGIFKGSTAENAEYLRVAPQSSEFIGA
# Excerpt: (§1) H1975-clone #28(Del19/T790M/C797S, or abbr: DTC), H1975-clone #23(Del19/C797S, or abbr: DC), H1975-clone #25(L858R/T790M/C797S, or abbr: LTC) and H1975-clone #8 (L858R/C797S, or abbr: LC). EGFR-Del19:T790M/C797S, EGFR-Del19/C797S, EGFR-L858R/T790M/C797S and EGFR-L858R/C797S were stably expressed in H1975 cell lines by lentivirus-mediated over-expression, respectively. The EGFR over-expressed cells then underwent knockout, in which the EGFR targeting sgRNA was designed to only target the endogenous EGFR copies and preserve the exogenous EGFR copies. Followed by the knockout, the edited H1975 cells were seeded in 96 well plates at the concentration of […], cultured for about 2 weeks to allow single clones formation. The formed clones were screened by DNA sequencing and whole exon sequencing analysis for the desired edition. H1975-clone #28, H1975-clone #23, H1975-clone #25 and H1975-clone #8 were finally confirmed as homozygous Del19/T790M/C797S EGFR, Dell9/C797S EGFR, L858R/T790M/C797S EGFR and L858R/C797S EGFR clones, respectively.
# (§2) H1975-#25, H1975-#28, H1975-#23 and H1975-#8 cells are treated with compounds diluted in 0.2% DMSO cell culture medium on day 2, incubate for 16h, 37° C., 5% CO2. the final concentration of compounds in all assay is start with 10 uM, 5-fold dilution, total 8 doses were included.
# (§3) After 16h treatment, add HTRF lysis buffer to each well; seal the plate and incubate 1 hour at room temperature on a plate shaker; Once the cells are lysed, 16 μL of cell lysate are transferred to a PE 384-well HTRF detection plate; 4 μL of pre-mixed HTRF antibodies are added to each well; Cover the plate with a plate sealer, spin 1000 rpm for 1 min, Incubate overnight at room temperature; Read on BMG PheraStar with HTRF protocol (337 nm-665 nm-620 nm).
# (§4) The IC50 (DC50) value of a compound can be obtained by fitting the following equation
# (§5) Y=Bottom+(TOP−Bottom)/(1+((IC50/X)^hillslope))
# (§6) Wherein, X and Y are known values, and IC50, Hillslope, Top and Bottom are the parameters obtained by fitting with software. Y is the inhibition percentage (calculated from the equation), X is the concentration of the compound: IC50 is the concentration of the compound when the 50% inhibition is reached. The smaller the IC50 value is, the stronger the inhibitory ability of the compound is. Vice versa, the higher the IC50 value is, the weaker the ability the inhibitory ability of the compound is: Hillslope represents the slope of the fitted curve, generally around 1*; Bottom represents the minimum value of the curve obtained by data fitting, which is generally 0%±20%; Top represents the maximum value of the curve obtained by data fitting, which is generally 100%±20%. The experimental data were fitted by calculating and analyzing with Dotmatics data analysis software.
# Del19/T790M/C797S EGFR = assay: EGFR degradation HTRF assay in H1975-clone #28 (DTC) cells; assay type: cell-based; conditions: H1975 # 28 DTC (Del19/T790M/C797S), 16h treatment; for DC50: HTRF; for Dmax (%): maximum percentage of degradation
# Excerpt: as §1, §2, §3, §4, §5, §6
DC50 (L858R/T790M/C797S EGFR),Dmax (L858R/T790M/C797S EGFR),DC50 (Del19/T790M/C797S EGFR),Compound,Dmax (%) (Del19/T790M/C797S EGFR)
0.546 nM,88%,0.623 nM,"Cc1cc2cc(n1)-c1cnn(C)c1OCCC[C@@H](C)CN1/C(=N/C2=O)Nc2ccc(N3CCN(CCNc4cc(F)c([C@H]5CCC(=O)NC5=O)c(F)c4)CC3)cc21 (single isomer, unassigned) [Example 368]",80.06%
2.51 nM,89.8%,0.794 nM,"Cc1cc2cc(n1)-c1cnn(C)c1OCCC[C@@H](C)CN1/C(=N/C2=O)Nc2ccc(N3CCN([C@H]4CCN(c5cc(F)c([C@H]6CCC(=O)NC6=O)c(F)c5)C[C@@H]4F)CC3)cc21 (single isomer, unassigned) [Example 424]",82.75%
1.25 nM,86.6%,0.633 nM,"Cc1cc2cc(n1)-c1cnn(C)c1OCC[C@H]1C[C@@H]1CN1/C(=N/C2=O)Nc2ccc(N3CCN([C@H]4C[C@H](Nc5cc(F)c([C@H]6CCC(=O)NC6=O)c(F)c5)C4)CC3)cc21 (single isomer, unassigned) [Example 443]",78.26%
2.1 nM,89%,1.3 nM,"Cc1cc2cc(n1)-c1cnn(C)c1OCCC[C@@H](C)CN1/C(=N/C2=O)Nc2ccc(N3CCN([C@H]4C[C@H](Nc5cc(F)c([C@H]6CCC(=O)NC6=O)c(F)c5)C4)CC3)cc21 (single isomer, unassigned) [Example 444]",82.11%
0.431 nM,89.6%,0.629 nM,"Cc1cc2cc(n1)-c1cnn(C)c1OCCC[C@@H](C)CN1/C(=N/C2=O)Nc2ccc(N3CCN(C4CCN(c5cnc([C@H]6CCC(=O)NC6=O)c(F)c5)CC4)CC3=O)cc21 (single isomer, unassigned) [Example 460]",75.27%
0.6 nM,94.3%,0.5 nM,"Cc1cc2cc(n1)-c1cnn(C)c1OCCC[C@@H](C)CN1/C(=N/C2=O)Nc2ccc(CN3CCC4(CC3)CCN(C(=O)C3CN(c5cc(F)c([C@H]6CCC(=O)NC6=O)c(F)c5)C3)CC4)cc21 [Example 12, (R)-3-(2,6-difluoro-4-(3-(9-(((R,E)-1^1,2^6,7-trimethyl-3-oxo-5^2,53-dihydro-1^1H,5^1H-11-oxa-4-aza-5(2,1)-benzo[d]imidazola-2(2,4)-pyridina-1(4,5)-pyrazolacycloundecaphane-5^6-yl)methyl)-3,9-diazaspiro[5.5]undecane-3-carbonyl)azetidin-1-yl)phenyl)piperidine-2,6-dione]",86.7%
10.6 nM,82.1%,–,"Cc1cc2cc(n1)-c1cnn(C)c1OCCC[C@@H](C)CN1/C(=C/C2=O)Nc2ccc(CN3CCC(N4CCC(c5cc(F)c([C@H]6CCC(=O)NC6=O)c(F)c5)CC4)CC3)cc21 [Example 16, (R)-3-(2,6-difluoro-4-(1′-(((R,E)-1^1,2^6,7-trimethyl-3-oxo-5^2,5^3-dihydro-1^1H,5^1H-11-oxa-4-aza-5(2,1)-benzo[d]imidazola-2(2,4)-pyridina-1(4,5)-pyrazolacycloundecaphane-5^6-yl)methyl)-[1,4′-bipiperidin]-4-yl)phenyl)piperidine-2,6-dione]",–
4.4 nM,87.4%,2.1 nM,"Cc1cc2cc(n1)-c1cnn(C)c1OCCC[C@@H](C)CN1/C(=N/C2=O)Nc2ccc(CN3CCC(N4CCN(C5CN(c6cc(F)c([C@H]7CCC(=O)NC7=O)c(F)c6)C5)CC4)CC3)cc21 [Example 18, (R)-3-(2,6-difluoro-4-(3-(4-(1-(((R,E)-1^1,2^6,7-trimethyl-3-oxo-5^2,5^3-dihydro-1^1H,5^1H-11-oxa-4-aza-5(2,1)-benzo[d]imidazola-2(2,4)-pyridina-1(4,5)-pyrazolacycloundecaphane-5^6-yl)methyl)piperidin-4-yl)piperazin-1-yl)azetidin-1-yl)phenyl)piperidine-2,6-dione]",75.8%
2.7 nM,77.8%,–,"Cc1cc2cc(n1)-c1cnn(C)c1OCCC[C@@H](C)CN1/C(=N/C2=O)Nc2ccc(CN3CCC4(CC3)CCN(CC3CCN(c5ccc6c(c5)CN(C5CCC(=O)NC5=O)C6=O)CC3)CC4)cc21 (stereo partly drawn) [Example 21, 3-(1-oxo-5-(4-((9-(((R,E)-1^1,2^6,7-trimethyl-3-oxo-5^2,5^3-dihydro-1^1H,5^1H-11-oxa-4-aza-5(2,1)-benzo[d]imidazola-2(2,4)-pyridina-1(4,5)-pyrazolacycloundecaphane-5^6-yl)methyl)-3,9-diazaspiro[5.5]undecan-3-yl)methyl)piperidin-1-yl)isoindolin-2-yl)piperidine-2,6-dione]",–
1.5 nM,78.5%,–,"Cc1cc2cc(n1)-c1cnn(C)c1OCCC[C@@H](C)CN1/C(=N/C2=O)Nc2ccc(CN3CCN(C[C@@H]4CCN(c5cc(F)c([C@H]6CCC(=O)NC6=O)c(F)c5)C4)CC3)cc21 [Example 88, (R)-3-(2,6-difluoro-4-((S)-3-((4-(((R,E)-1^1,2^6,7-trimethyl-3-oxo-5^2,5^3-dihydro-1^1H,5^1H-1l-oxa-4-aza-5(2,1)-benzo[d]imidazola-2(2,4)-pyridina-1(4,5)-pyrazolacycloundecaphane-5^6-yl)methyl)piperazin-1-yl)methyl)pyrrolidin-1-yl)phenyl)piperidine-2,6-dione]",–
1.1 nM,86.9%,–,"Cc1cc2cc(n1)-c1cnn(C)c1OCCC[C@@H](C)CN1/C(=N/C2=O)Nc2ccc(CN3CCN(C[C@H]4CCN(c5cc(F)c([C@H]6CCC(=O)NC6=O)c(F)c5)C4)CC3)cc21 [Example 90, (R)-3-(2,6-difluoro-4-((R)-3-((4-(((R,E)-1^1,2^6,7-trimethyl-3-oxo-5^2,5^3-dihydro-^1H,5^1H-11-oxa-4-aza-5(2,1)-benzo[d]imidazola-2(2,4)-pyridina-1(4,5)-pyrazolacycloundecaphane-5^6-yl)methyl)piperazin-1-yl)methyl)pyrrolidin-1-yl)phenyl)piperidine-2,6-dione]",–
1.9 nM,92.7%,–,"Cc1cc2cc(n1)-c1cnn(C)c1OCCC[C@@H](C)CN1/C(=N/C2=O)Nc2ccc(CN3CC4(CCN(CCc5cc(F)c([C@H]6CCC(=O)NC6=O)c(F)c5)CC4)C3)cc21 [Example 93, (R)-3-(2,6-difluoro-4-(2-(2-(((R,E)-1^1,2^6,7-trimethyl-3-oxo-5^2,5^3-dihydro-1^1H,5^1H-11-oxa-4-aza-5(2,1)-benzo[d]imidazola-2(2,4)-pyridina-1(4,5)-pyrazolacycloundecaphane-5^6-yl)methyl)-2,7-diazaspiro[3.5]nonan-7-yl)ethyl)phenyl)piperidine-2,6-dione]",–
0.6 nM,82.5%,–,"Cc1cc2cc(n1)-c1cnn(C)c1OCCC[C@@H](C)CN1/C(=N/C2=O)Nc2ccc(CN3CCN(CCc4cc(F)c([C@H]5CCC(=O)NC5=O)c(F)c4)[C@H](C)C3)cc21 [Example 107, (R)-3-(2,6-difluoro-4-(2-((R)-2-methyl-4-(((R,E)-1^1,2^6,7-trimethyl-3-oxo-5^2,5^3-dihydro-1^1H,5^1H-11-oxa-4-aza-5(2,1)-benzo[d]imidazola-2(2,4)-pyridina-1(4,5)-pyrazolacycloundecaphane-5^6-yl)methyl)piperazin-1-yl)ethyl)phenyl)piperidine-2,6-dione]",–
